Results as given in publication PMC9474773, “PARP targeted Auger emitter therapy with [^125I]PARPi-01 for triple-negative breast cancer” (EJNMMI Research, 2022).
Values joined by “and” are separate entries in the source; they are usually repeats but may differ in a detail not shown here. Equal entries are not always repeated. Blank lines part the entries; values can stand above or below the compound they belong to.

Assays:
[1] = parameters: method as in PMID 29630818; details: cited from earlier work
[2] = test system: cytochrome P450 (CYP450); parameters: method as in PMID 28736501, PMID 29717476; details: cited from earlier work
[3] = parameters: method as in PMID 27169564; details: cited from earlier work
[4] = parameters: method as in PMID 34318678; details: intracellular distribution not considered; cited from earlier work
[5] = test system: subcutaneous MDA-MB-231 tumours; assay: Small animal SPECT/CT imaging; type: in vivo, NOD/SCID mice
Description: Imaging was performed with a small animal SPECT/CT system (X-Cube and γ-Cube, Molecubes, Gent, Belgium). Mice bearing subcutaneous MDA-MB-231 tumours upon reaching tumour volume of 500 mm^3 were intravenously administered with [^123I]PARPi-01 (9.3 ± 2.7 MBq) via lateral tail-vein using a catheter under 1.5 to 2.5% isoflurane anaesthesia in oxygen at 0.8 L/min. [^123I]PARPi-01 was prepared by diluting the tracer in 0.9% NaCl to a total volume of 100 μL. Administered dose was calculated by subtraction of decay-corrected syringe activity post-injection from pre-injection activity. The mice were scanned either at 4 h or at 24 h post injection (p.i.). The CT acquisition settings were as follows: default high resolution protocol, 440 uA, 50 kVp, 32 ms exposure time, and 1080° rotation in a spiral mode with 960 exposures/360°; the duration of each CT scan was 5 min. A SPECT scan was initiated at the end of each CT scan. The SPECT acquisition settings were as follows: 7-headed camera equipped with a general-purpose collimator with 28 pinholes (i.e., 0.75 mm apertures and a radius of rotation of 20 mm), helical scan with 82 bed positions; the total duration of each SPECT scan was 30 min. Both CT and SPECT axial fields of view were selected at 105 mm. During the scans, the isoflurane concentration was adapted to achieve a respiratory rate between 75 and 50 breaths per minute. […]

[6] = test system: subcutaneous MDA-MB-231 xenografts; assay: Ex vivo biodistribution by gamma counter; type: in vivo, NOD/SCID mice
Description: Female NOD/SCID mice at 5–6 weeks of age (Janvier, France) was used for developing subcutaneous TNBC tumour. Animals were housed in 20–24 °C in a 12 h day light cycle. For each mouse, 3 × 10^6 MDA-MB-231 cells were suspended in a 1:1 (volume) mixture of Culture media: Matrigel® matrix (Corning®, Product No: 356237). Mice were inoculated with this cell suspension (max 200 µl) subcutaneously in the right flank. Tumour growth was monitored daily using calliper measurements. Tumour volume was calculated daily according to the formula Tumourvolume=TumourLength×Tumourbreadth^2×0.52
Upon reaching of a tumour volume of 500 mm^3, animals were proceeded for experiments. For biodistribution study animals were administered with [^123I]PARPi-01 (n = 3). For therapy studies animals were randomized for control (n = 10) or [^125I]PARPi-01 administration (n = 10). Randomisation was done based on equivalent distribution of tumour volumes. In addition to the daily calliper measurements image analysis of CT based tumour volumes was blinded to avoid bias. Animals were sacrificed upon completion of biodistribution study or upon reaching a humane end point for the therapy study. Humane end point is determined as reaching of either of the following conditions: 15 mm tumour diameter, 1500 mm^3 tumour volume, or development of ulcers/ascites.
For biodistribution, animals imaged at 4 h p.i. were killed 24 h p.i., while the ones scanned 24 h p.i. were killed 5 days p.i.. Subsequently, organs were excised, weighed, and assayed for radioactivity in a gamma counter. Mean tumour and organ uptake was determined from decay-corrected tissue radioactivity normalized to injected dose and tissue sample weight (%ID/g tissue wet weight).

[7] = 24 h p.i., i.v., decay-corrected, n = 3

Structure (SMILES): O=C(c1cc(Cc2n[nH]c(=O)c3ccccc23)ccc1F)N1CCN(C(=O)C2CC2)CC1 [Olaparib]
Log Poct [1]: 1.95
fraction metabolised in liver by CYP450 [2]: 84%
dose limiting toxicities [3]: anaemia, thrombocytopenia, and neutropenia

Structure (SMILES): O=C(c1cccc([123I])c1)N1CCN(C(=O)c2cc(Cc3n[nH]c(=O)c4ccccc34)ccc2F)CC1 [[^123I]MAPi]
estimated absorbed dose in liver [4]: 0.0044 Gy/MBq
estimated absorbed dose in thyroid [4]: 0.0041 Gy/MBq

clearance pathway ([5]; 4 h and 24 h p.i.): hepatobiliary clearance
deiodination in vivo (thyroid uptake) ([5]; 24 h p.i.): strong deiodination
Tumour: Blood Ratio ([6]; 24 h p.i.): 1.3
liver uptake [6, 7]: 2.5 %ID/g and 2.49 ± 0.6 %ID/g
tumour uptake [6, 7]: 0.2 %ID/g
activity in organs of animals sacrificed at 5 d p.i. ([6]; 5 d p.i.): no quantifiable activity
Structure (SMILES): O=C(c1ccc([123I])cc1)N1CCN(C(=O)c2cc(Cc3n[nH]c(=O)c4ccccc34)ccc2F)CC1 [[^123I]PARPi-01]
